Measured values as given in patent US20230285372A1, “Pharmaceutical use of (E)-3-arylheterocyclylprop-2-enoic acid derivatives” (MEDCURIUS INC., priority 2020, published 2023).
“And” between values parts separate entries of the source, which are not always exact repeats. Identical values can stand only once.

Columns and labels:
[1] = test system: tyrosine hydroxylase (TH); test: Tyrosine hydroxylase (TH) level in midbrain, immunohistochemistry, MPTP mouse; type: in vivo; details: medium and high dosage of I-5 (10 and 20 mg/kg bid); vs model group
Protocol: Male C57 mouse were screened for their motor function by a mouse rod-rotating test, and unqualified ones were excluded from the test. […] MPTP was injected subcutaneously every 4 days in the model group and the drug administration group with a dosage of 25 mg/kg for 40 consecutive days. Each group of I-5 was administered once a day at 8:00 am and 8:00 pm (by intragastric administration), twice in total. The control group and model group were given the corresponding solvent once a day in the morning (by intragastric administration) while the positive control group (L-DOPA) was given L-DOPA once a day in the morning (by intragastric administration). The intragastric volume was 0.1 ml/10 g body weight, and the behavior test was started 40 days later. […] The storage time of the prepared liquid medicine was not more than 24 hours.
Tissues from all the animals were collected on the second day after the end of the behavioral experiment. […] The level of tyrosine hydroxylase (TH), a marker protein of dopaminergic neurons, was detected by immumohistochemistry, and α-synuclein protein level and phosphorylation level of the protein were detected by Western blot.

HT-22 cells = test: Protective effect on HT-22 cell damage caused by L-glutamate monosodium salt; type: cell-based, mouse; details: 15 mM L-glutamate
Protocol: (§1) Well-proliferated HT-22 cells, derived from mouse hippocampal neuronal cells in logarithmic growth phase, were selected, and they were counted after being subjected to trypsin digestion and dispersion. The cell density was adjusted with DMEM/F12 medium (containing 10% FBS and 1% double antibody). The cells were then inoculated in a 96-well plate at a density of 2,000 cells per well, and cultured in a cell incubator at 37° C. in atmosphere containing 5% CO2 for 24 hours. For the control group and the L-glutamate monosodium salt group (model group), serum-free DMEM/F12 medium was added, and the other wells were added with tested compounds of different concentrations; except that the serum-free DMEM/F12 medium was added to the control group. L-glutamate monosodium salt solution at the final concentration of 15 mM was added to the remaining wells. After 24 hours, the cell viability was detected with a luminescent cell viability assay kit.
as §1, with “group,” for “group.”
as §1, with “2.000” for “2,000”, “group,” for “group.”

[2] = test system: MPTP-induced Parkinson's disease mouse; test: Model of MPTP-induced Parkinson's disease mouse, overall conclusion; type: in vivo; details: improves MPTP-induced dyskinesia and inhibits neurodegeneration; bid intragastric
Protocol: (§2) Male C57 mouse were screened for their motor function by a mouse rod-rotating test, and unqualified ones were excluded from the test. […] MPTP was injected subcutaneously every 4 days in the model group and the drug administration group with a dosage of 25 mg/kg for 40 consecutive days. Each group of I-5 was administered once a day at 8:00 am and 8:00 pm (by intragastric administration), twice in total. […] The intragastric volume was 0.1 ml/10 g body weight, and the behavior test was started 40 days later. […] The storage time of the prepared liquid medicine was not more than 24 hours.

p-synuclein = test: Phosphorylated α-synuclein (p-synuclein) level in midbrain, Western blot, MPTP mouse; type: in vivo; details: vs model group
Description: The core pathological change of Parkinson's disease is the loss of dopaminergic neurons. Tyrosine hydroxylase (TH), the rate-limiting enzyme in dopamine synthesis, is the landmark protein of the dopaminergic neurons. Therefore, the decrease in its level indicates the loss of the dopaminergic neurons. A key protein for the occurrence and development of Parkinson's disease is α-synuclein protein, and the abnormal modification (hyperphosphorylation) of this protein can inhibit microtubule polymerization, enhance oxidative stress, and thus accelerate the death of the dopaminergic neurons.
as §2
Tissues from all the animals were collected on the second day after the end of the behavioral experiment. Hearts from six animals in each group were perfused and fixed with paraformaldehyde for pathological analysis of paraffin sections. Brain tissue of the remaining animals was separated on ice, and brain areas (midbrain) related to Parkinson's disease were collected. After being frozen with liquid nitrogen, they were stored in a refrigerator at −80° C. for protein analysis. The level of tyrosine hydroxylase (TH), a marker protein of dopaminergic neurons, was detected by immumohistochemistry, and α-synuclein protein level and phosphorylation level of the protein were detected by Western blot.

[3] = test system: MPTP-induced Parkinson's disease mouse; test: Pole-climbing test, MPTP-induced Parkinson's disease mouse; type: in vivo; details: 40 days, vs model group
Protocol: as §2
A climbing pole in the pole-climbing test was a rough wooden pole with a diameter of 2 cm and a length of 50 cm. The bottom of the wooden pole was located in the mouse home cage and was vertically oriented. When the mouse was placed on top of the wooden pole, it would naturally descend to the bottom of the wooden pole and reach the base of the pole. […] The mouse should have a pre-acclimation period of 2 days prior to the test, training five times a day. To the test day, the time required for the […] to reach the bottom (incubation period) was taken as an evaluation index to observe the effect of the tested compound on the motion ability of the mouse.

HO-1 = HO-1 expression in HT-22 cytoplasm, Western Blot; type: cell-based, mouse; details: HT-22 cells, 1.25 μM and 0.625 μM, 24 hours, vs control group
Description: As a transcription factor, Nrf2 needs to enter the nucleus and combine with ARE sequence to play a role in transcriptional activation. Therefore, Nrf2 protein level in the nucleus is an important prerequisite for the activation of Nrf2 signaling pathway. NQO-1 and HO-1 are target genes regulated by Nrf2, and the increase of their protein levels is an important sign of activation of the Nrf2 signaling pathway.
HT-22 cells in logarithmic growth phase were selected, the culture medium was discarded, the cells were digested with 0.25% Trypsin containing EDTA, and cell suspension was made. Cell density was adjusted to 50000/ml with DMEM/F12 medium (containing 10% FBS and 1% double antibody) and it was inoculated to 6-well plate, with 2000 μL/well, the number of cells per well was 100, 000, and the cells were cultured in a cell incubator at 37° C. in an atmosphere containing 5% CO2 for 24 hours. Then, the medium of each well was replaced with new 1980 μL DMEM/F12 medium. […] After 24 hours, the cells were collected, nuclear protein and cytoplasmic protein were extracted, and the level of Nrf2 in the nucleus and the expression of NQO-1 and HO-1 in cytoplasm were detected by Western Blot.

## N#C/C=C/c1ccccn1 [Compound I-5]
[1]
  TH positive area of substantia nigra: significantly increase the TH positive area
HT-22 cells; HT22 cells, comparison with positive control drug DMF
  protection of HT22 cells against L-glutamate monosodium salt damage, in words: better effects than the positive control drug DMF
HT-22 cells; Mus musculus, HT-22, 24 h, Table 1, Conc 0.156 μm, 24 hours, L-Glu alone 27.73 (I-5 32.92), read-out: cell viability
  viability at 0.156 µM: 79.3%
HT-22 cells; Mus musculus, HT-22, 24 h, Table 1, Conc 0.625 μm, 24 hours, L-Glu alone 27.73 (I-5 32.92), read-out: cell viability
  viability at 0.625 µM: 73.7%
HT-22 cells; Mus musculus, HT-22, 24 h, Table 1, Conc 2.5 μm, 24 hours, L-Glu alone 27.73 (I-5 32.92), read-out: cell viability
  viability at 2.5 µM: 57.6%
HT-22 cells; Mus musculus, HT-22, 24 h, Table 1, Conc 5 μm, 24 hours, L-Glu alone 27.73 (I-5 32.92), read-out: cell viability
  viability at 5 µM: 58.2%
[2]
  effective doses: 10 mg/kg and 20 mg/kg
p-synuclein; I-5 10 mg/kg, p<0.01
  p-synuclein protein level in the midbrain: significantly lower than that in the model group
p-synuclein; I-5 20 mg/kg, p<0.05
  p-synuclein protein level in the midbrain: significantly lower than that in the model group
[3]; I-5 5 mg/kg bid intragastric, p<0.01
  latency of mouse reaching the base of the pole: significantly shortened
[3]; I-5 10 mg/kg bid intragastric, p<0.0001
  latency of mouse reaching the base of the pole: significantly shortened
[3]; I-5 20 mg/kg bid intragastric, p<0.0001
  latency of mouse reaching the base of the pole: significantly shortened
HO-1
  protein level of HO-1: increased significantly
